Measured values as given in patent US5573772A, “Methods for protecting tissues and organs from ischemic damage” (priority 1994, dated 1996).

Key:
heart = details: cited from earlier work
isolated rabbit hearts [1] = experiment: Hemodynamic effects in non-ischemic, unpaced isolated rabbit hearts, Example 4; details: APNEA 500 nM
Procedure: In an additional group of 3 hearts that were not made ischemic, 500 nM APNEA was infused for 1 minute. This group of hearts was not paced to control heart rate, and the effects of APNEA on spontaneous heart rate and coronary flow were measured to determine the hemodynamic effects of APNEA.

isolated rabbit hearts [2] = experiment: Dose-response of APNEA on infarct size in isolated rabbit hearts, Example 4 (Table A)
Procedure: New Zealand white rabbits of either sex, between 1.4-2.4 kg, were anesthetized with intravenous sodium pentobarbital (30 mg/kg). The neck was opened and a tracheotomy was performed. The rabbits were ventilated with 100% oxygen via a positive pressure respirator (MD industries, Mobile, Ala.). Ventilation rate was 30-35 breaths per minute, and tidal volume was approximately 15 ml. A left thoracotomy was performed in the fourth intercostal space and pericardium was opened to expose the heart. A 2-0 silk suture with an RB taper needle was passed around a branch of the left coronary artery, and the end of the silk were threaded through a small vinyl tube to form a snare. The heads were quickly excised and mounted on a Langendorff apparatus and perfused at constant pressure with Krebs buffer containing (in mM) 118.5 NaCl, 4.7 KCl, 1.2 MgSO4, 1.2 K2 PO4, 24.3 NaHCO3, 2.5 CaCl2 and 10 glucose. […] The temperature of the perfusate was maintained at 37° C. The perfusion pressure was kept at 75 mm Hg. Pacing electrodes were placed on the right atrium and all hearts were paced at 200 beats/minute with pulses of 5 volts and 4 msec duration to keep the heart rate constant. A fluid-filled latex balloon connected to a transducer via PE240 tubing was inserted into the left ventricle. Balloon volume was adjusted to set the left ventricular diastolic pressure at 10 mm Hg at the beginning of the experiment. Total coronary artery flow was measured by timed collection of buffer from the chamber into a graduated cylinder. Regional ischemia was effected by pulling the snare tight and clamping the tube with a hemostat. Global ischemia was performed by clamping the inflow tubing of the Langendorff apparatus. Reperfusion was achieved by releasing the restriction. All hearts were allowed to equilibrate for 20 minutes before the experiments were started. Heart rate (HR), coronary flow (CF) and left ventricular developed pressure (LVDP) were recorded at the point just before and at the end of each treatment with the pacing momentarily turned off.
For the group to be exposed to ischemia, the silk suture under the coronary branch was tightly tied to occlude the artery at the end of each experiment, and a 0.5% suspension of fluorescent particles (1-10 um diameter from Duke Scientific Corp., Palo Alto, Calif.) were infused into the perfusate to mark the risk zone as the non-fluorescent tissue. The hearts were removed from the Langendorff apparatus, weighed and then frozen. The hearts were cut into 2 mm transverse slices. The slices were thawed and incubated in 1% triphenyl tetrazolium chloride (TTC) in pH 7.4 buffer for 20 minutes at 37° C. TTC reacts with NADH and dehydrogenase enzymes and stains all tissue still having them to a deep red color. […] After staining, the area of infarcted tissue (TTC negative tissue) and the risk zone (area lacking fluorescence under ultraviolet light) in each slice were traced. The area of infarct and risk zone were determined by planimetry of the tracing. The volume of infarcted myocardium and myocardium at risk was then calculated by multiplying the planimetered areas by the slice thickness.
In this study, applicants examined the effects of varying the dosage of APNEA on myocardial infarct size in Langendorff buffer-perfused rabbit hearts subject to 30 minutes of regional ischemia and 2 hours reperfusion. The methods utilized in this example are identical to those described in Example 1.
Six groups of hearts were studied: control untreated hearts (n=10); APNEA 0.5 nM (n=6); APNEA 5 nM (n=6); APNEA 50 nM (n=6); APNEA 500 nM (n=6); and APNEA 500 nM+DPCPX 200 nM.(n=6) In all cases, APNEA (0.5-500 nM) was infused for 5 minutes, beginning 15 minutes prior to 30 minutes of ischemia. The regional ischemia was produced by occlusion of the coronary artery, followed by 120 minutes of reperfusion.

[3] = system: intact, blood perfused rabbit heart; experiment: Infarct size in the intact anesthetized rabbit, 30 min ischemia and reperfusion, Example 2
Procedure: In this study, the effect of the adenosine receptor agonist, I-APNEA, on infarct size in the anesthetized rabbit was compared to the protection observed with ischemic preconditioning (PC).
New Zealand White rabbits (1.5-2.5 kg) were anaesthetized with pentobarbital sodium (40 mg/kg) administered via a catheter in a marginal ear vein. The animals were intubated with a pediatric cuffed endotracheal tube and ventilated with room air using a positive pressure respirator (Harvard Apparatus, Natick, Mass.). The heart was exposed in situ via an incision between the left 4th and 5th ribs, and a branch of the left coronary artery was isolated, using a 3-0 silk suture on RB-taper needle, for later ligation to induce 30 minutes of ischemia followed by 180 minutes of reperfusion. A catheter inserted into a femoral vein was used for administration of fluids and drugs. Infarct size was measured using the method described in the section entitled "Measurement of Infarct Size and Risk Area" in Example 1.
All animals received 30 minutes of regional ischemia, induced by tightening the suture placed around the coronary artery. Following the 30 minutes of ischemia, the suture was loosened, and reperfusion was allowed for the ensuing 180 minutes. Control animals received only the 30 minutes of ischemia and 180 minutes of reperfusion (n=9). Ischemic preconditioning (PC) was induced by 5 minutes of occlusion of the coronary artery followed by 10 minutes of reperfusion before the 30 minutes of occlusion (n=7). In a separate group of rabbits, I-APNEA was delivered intravenously as a slow bolus injection (0.25 mg/kg), beginning 15 minutes prior to the 30 minutes occlusion (n=8). In two additional groups of rabbits, the effects of the A1-selective adenosine receptor blocker, DPCPX, were tested against the effects of PC (n=6) and I-APNEA (n=8). […] At the end of 120 minutes of reperfusion, all animals were killed by an overdose of pentobarbital, and risk area and infarct size were measured.

[4] = system: A3 adenosine receptor (R226); details: cited from earlier work
intact rabbit = experiment: Bradycardia and mean arterial pressure in the anesthetized rabbit, Example 2; details: DPCPX 0.5 mg/kg IV

Nc1ncnc2c1ncn2[C@@H]1O[C@H](CO)[C@@H](O)[C@H]1O [ADO, Adenosine]
Sensation of anginal pain (heart; in vivo): mediator of the sensation of anginal pain | Hypotension (heart; intravenous injection at doses required for ischemic preconditioning): too much hypotension

Nc1ccc(CCNc2ncnc3c2ncn3[C@@H]2O[C@H](CO)[C@@H](O)[C@H]2O)cc1 [APNEA, N^6-(2-(4-aminophenyl)ethyl) adenosine]
Coronary flow after APNEA (isolated rabbit hearts [1]; 1 minute, before 50±9, 3 hearts): 58 ± 6 mL/min | Heart rate after APNEA (isolated rabbit hearts [1]; 1 minute, before 178±7, 3 hearts): 169±3 beats/min | Effect on heart rate or coronary flow (isolated rabbit hearts [1]; non-ischemic hearts): no effect on heart rate or coronary flow | Effect on infarct size compared to untreated control (isolated rabbit hearts [2]; APNEA 0.5 nM): no effect on infarct size | Infarct Area (isolated rabbit hearts [2]; APNEA 5 nM): 14 ± 3 % of Risk | Infarct Area (isolated rabbit hearts [2]; APNEA 50 nM): 14 ± 3 % of Risk | Infarct Area (isolated rabbit hearts [2]; APNEA 500 nM): 8 ± 1 % of Risk | Infarct Area (isolated rabbit hearts [2]; APNEA 500 nM + DPCPX 200 nM): 15 ± 5 % of Risk | Effect on infarct size (isolated rabbit hearts [2]; APNEA 5, 50, and 500 nM): reduced infarct size | Infarct Area (isolated rabbit hearts [2]; APNEA .5 nM, control 24 ± 1): 22 ± 5 % of Risk

CCCn1c(=O)c2[nH]c(C3CCCC3)nc2n(CCC)c1=O [DPCPX, 8-cyclopentyl-1,3-dipropylxanthine]
Infarct size ([3]; DPCPX 0.5 mg/kg IV + I-APNEA 0.25 mg/kg): 28±8.0% | Infarct size ([3]; DPCPX 0.5 mg/kg IV + PC): 7±1.8% | Binding to R226 [4]: not to bind | Effect on bradycardia associated with activation of the A1 adenosine receptor (intact rabbit): abolish | Effect on fall in mean arterial pressure with I-APNEA or R-PIA (intact rabbit; I-APNEA 0.25 mg/kg or R-PIA 1 mg/kg, iv): attenuated | Blockade of APNEA's infarct size reduction (isolated rabbit hearts [2]; DPCPX 200 nM + APNEA 500 nM): not blocked
